Measurements taken from patent US11555031B2, “Compounds and methods for regulating insulin secretion” (The Broad Institute, Inc., priority 2017, dated 2023).
pEC50: −log10 of the molar value. Entries after “also recorded” stand apart in the source; their conditions may differ.

Assays:
[1] = test system: INS-1E cells; assay: Luciferase Insulin Secretion Assay (proinsulin-Gaussia luciferase reporter); assay type: cell-based, rat; set-up: key to Activity: Active: a compound is identified as active if the compound has a Z-score greater than 3 in the presence of 16.7 mM glucose; Partial activity indicates that the compound does promote insulin secretion (at lower Z-scores); Lost Glucose Dependence: In some cases, insulin secretion was promoted at both measured insulin concentrations; details: for Activity: glucose dependence of insulin secretion, Z-score in the presence of 16.7 mM glucose; for glucose-dependent (glucose-stimulated) insulin secretion, luciferase reporter / effect on glucose-stimulated insulin secretion at high concentrations: INS-1E cells; for glucose-dependent (glucose-stimulated) insulin secretion, luciferase reporter: 2.8 mM vs 16.7 mM glucose; for effect on glucose-stimulated insulin secretion at high concentrations: high compound concentrations
Source text: A high-throughput luminescent insulin secretion assay was developed and performed to identify compounds that amplified insulin secretion only in the presence of a permissive glucose environment (FIG. 3). The assay used in compound screening is described in International Patent Publication No. WO2013070796A3, PCT/US2012/063982, and in Burns et al., High-Throughput Luminescent Reporter of Insulin Secretion for Discovering Regulators of Pancreatic Beta-Cell Function. Cell Metab. 2015 Jan. 6; 21(1):126-37.
The assay is a luminescent insulin secretion assay created by inserting Gaussia luciferase within the C-peptide portion of the insulin prohormone. Gaussia luciferase was chosen because of its small size and bright luciferase signal. To ensure full activity of the luciferase, a version was used that was codon-optimized for expression in mammalian cells. The enzyme was flanked with additional cleavage sites for prohormone convertase 2 (PC2), such that no extra amino acids should be present on the ends of the enzyme after processing within the vesicles (FIG. 4). Rat (INS-1E; Merglen et al., 2004) beta-cell lines stably expressing the reporter construct were generated. Assays using this cell type are referred to herein as Luciferase Insulin Secretion Assay.
A search for glucose-dependent insulin secretagogues was conducting by screening 384,216 compounds at a single concentration (10 μM) in duplicate using the Luciferase Insulin Secretion Assay, to identify those that increase insulin secretion only in the presence of high glucose (11.1 mM) (FIG. 6). These assays were performed in 1536 well format. A Z′ factor of 0.35 was obtained with respect the positive control (300 μM IBMX). The cutoff value selected was 45% activation, which was 3-4 standard deviations above background (solid uppermost line; FIG. 6).
For standard secretion assays, INS-1E cells were plated in 96-well format, preincubated for 1 hr in Krebs Ringer Buffer (KRB) with 2.8 mM glucose, and then stimulated for 1 hr in fresh KRB containing varying amounts of glucose and compounds. Insulin or C-peptide concentration was determined using an ELISA (Mercodia), following the manufacturer's protocol. Luciferase activity was determined from the same samples by adding the coelenterazine substrate to the supernatant to a final concentration of 10 μM and reading on a standard plate reader (BioTek).
INS-1E cells were expanded to 80% confluence in their growth medium, washed once in PBS, and preincubated for 1 hr at 37° C. in KRB with 2.8 mM glucose. Cells were then dissociated, spun at 300×g for 2 min, resuspended in fresh KRB without glucose, and filtered through 40 μm mesh (Becton Dickinson). Next, the cells were counted and diluted in KRB to 1×10^6 cells per ml, and glucose was added as required for each experiment. Cells were then seeded in 384-well format, 3×10^4 cells in 30 μl per well, using a Multidrop Combi device (Thermo Scientific). Compounds were pinned into each well using a Vario robot (CyBio) to a final concentration of 30 μM, and the plates were then incubated for 2 hr at 37° C. For assays involving a transfer step, the plates were then centrifuged at 300×g for 2 min, and 20 μl of supernatant was transferred to a new 384-well plate. Coelenterazine substrate was then added to a final concentration of 10 μM, and luciferase activity was determined using a standard plate reader (BioTek).

[2] = Solubility (medicinal chemistry measurements); assay type: physicochemical; details: relative to Compound 8
[3] = test system: alpha-TC-1-6; assay: Luminescent glucagon secretion assay in alpha-cell line; assay type: cell-based; details: compared with DMSO negative control
Experimental: FIG. 10 depicts the quantification of α-cell secretory activity in cells treated with DMSO, KCl, or Compound 8, using a luminescent assay for glucagon secretion.
To investigate the cell-type specificity of the compound, and to exclude the possibility that Compound 8 acts as a generic secretagogue, the compound was tested on secretion from a rodent alpha-cell line, “alpha-TC-1-6,” using a luciferase reporter for glucagon secretion that mirrors the insulin secretion assay (FIG. 10).

[4] = Plasma stability, human; assay type: in vitro ADME
Experimental: (§1) Measurements were performed on human, mouse (CD-1) and rat (SD) microsomes to determine the t1/2, the plasma protein binding (“PPB”) and the plasma stability (“PS”).

[5] = Plasma stability, mouse; assay type: in vitro ADME
Experimental: as §1

[6] = Plasma stability, rat; assay type: in vitro ADME
Experimental: as §1

| Structure (SMILES) | Activity [1] | other results |
| --- | --- | --- |
| Cc1cccc(NC(=O)c2ccc(OCc3c(C)cncc3C)cc2)c1C [Compound 49, N-(2,3-Dimethyl-phenyl)-4-(3,5-dimethyl-pyridin-4-ylmethoxy)-benzamide] | Inactive | pEC50 ([1]; Rattus norvegicus, INS-1E, glucose concentration of 16.7 mM): ~7.09; solubility [2]: lower solubility than Compound 8 |
| Cc1cccc(C)c1NC(=O)c1ccc(OCc2c(C)noc2C)cc1 [Compound 77] | Inactive |  |
| Cc1cccc(NC(=O)c2ccc(OCc3c(C)noc3C)cc2)c1Cl [Compound 78, N-(2-Chloro-3-methyl-phenyl)-4-(3,5-dimethyl-isoxazol-4-ylmethoxy)-benzamide] | Inactive |  |
| Cc1noc(C)c1COc1ccc(C(=O)N2CCc3ccccc32)cc1 [Compound 79] | Inactive |  |
| Cc1noc(C)c1COc1ccc(C(=O)N2CCCc3ccccc32)cc1 [Compound 80] | Inactive |  |
| Cc1noc(C)c1COc1ccc(C(=O)Nc2cccc3c2CCC3)cc1 [Compound 81, 4-(3,5-Dimethyl-isoxazol-4-ylmethoxy)-N-indan-4-yl-benzamide] | Inactive |  |
| Cc1cccc(NC(=O)c2ccc(OCc3c(C)noc3C)cc2)n1 [Compound 82] | Inactive |  |
| Cc1noc(C)c1COc1ccc(C(=O)Nc2cccc(C#N)c2C)cc1 [Compound 83, N-(3-Cyano-2-methyl-phenyl)-4-(3,5-dimethyl-isoxazol-4-ylmethoxy)-benzamide] | Inactive |  |
| COCc1cccc(NC(=O)c2ccc(OCc3c(C)noc3C)cc2)c1 [Compound 84, 4-(3,5-Dimethyl-isoxazol-4-ylmethoxy)-N-(3-methoxymethyl-phenyl)-benzamide] | Inactive |  |
| CC(=O)c1ccccc1NC(=O)c1ccc(OCc2c(C)noc2C)cc1 [Compound 85] | Inactive |  |
| Cc1noc(C)c1COc1ccc(C(=O)NC2CCCO2)cc1 (stereo not drawn) [Compound 86] | Inactive |  |
| CC(=O)NCCCc1cc(C(=O)Nc2cccc(C)c2C)ccc1OCc1c(C)noc1C [Compound 88, 3-(3-Acetylamino-propyl)-4-(3,5-dimethyl-isoxazol-4-ylmethoxy)-N-(2,3-dimethyl-phenyl)-benzamide] | Active |  |
| Cc1cccc(NC(=O)c2ccc(OCc3c(C)noc3C)c(CCCN=[N+]=[N-])c2)c1C [Compound 89, 3-(3-Azido-propyl)-4-(3,5-dimethyl-isoxazol-4-ylmethoxy)-N-(2,3-dimethyl-phenyl)-benzamide] | Inactive |  |
| CC(=O)NCc1ccccc1NC(=O)c1ccc(OCc2c(C)noc2C)cc1 [Compound 90, N-[2-(Acetylamino-methyl)-phenyl]-4-(3,5-dimethyl-isoxazol-4-ylmethoxy)-benzamide] | Inactive |  |
| CC(=O)NCc1cccc(NC(=O)c2ccc(OCc3c(C)noc3C)cc2)c1 [Compound 91, N-[3-(Acetylamino-methyl)-phenyl]-4-(3,5-dimethyl-isoxazol-4-ylmethoxy)-benzamide] | Inactive |  |
| Cc1cc(OCc2c(C)noc2C)ccc1-c1cnc(-c2cccc(C)c2C)[nH]1 [Compound 93] | Inactive |  |
| Cc1cccc(-c2cnc(-c3ccc(OCc4c(C)noc4C)cc3)[nH]2)c1C [Compound 94] | Inactive |  |
| Cc1cccc(-c2cc(-c3ccc(OCc4c(C)noc4C)cc3)n[nH]2)c1C [Compound 95] | Inactive |  |
| COCc1ccccc1NC(=O)c1ccc(OCc2c(C)noc2C)cc1 [Compound 96, 4-(3,5-Dimethyl-isoxazol-4-ylmethoxy)-N-(2-methoxymethyl-phenyl)-benzamide] | Inactive |  |
| Cc1cccc(NS(=O)(=O)c2ccc(OCc3c(C)noc3C)cc2)c1C [Compound 97, 4-(3,5-Dimethyl-isoxazol-4-ylmethoxy)-N-(2,3-dimethyl-phenyl)-benzenesulfonamide] | Inactive |  |
| Cc1sc2c(c1C)C(c1ccc(Cl)cc1)=N[C@@H](CC(=O)OC(C)(C)C)c1nnc(C)n1-2 [JQ1, reference compound] |  | glucose-dependent (glucose-stimulated) insulin secretion, luciferase reporter [1]: None of the compounds assayed increased glucose-dependent insulin secretion; also recorded: No increase in secretion; also recorded: small effect; effect on glucose-stimulated insulin secretion at high concentrations [1]: inhibitory effects; also recorded: decrease in glucose-stimulated secretion |
| [Cl-].[K+] [KCl, potassium chloride, reference compound] |  | alpha-cell secretory activity (luciferase reporter for glucagon secretion) [3]: causes secretion |
| COc1ccccc1S(=O)(=O)Nc1ccc2c(c1)CN(C)C(=O)N2 [PF1, reference compound] |  | glucose-dependent (glucose-stimulated) insulin secretion, luciferase reporter [1]: neither of the known bromodomain inhibitors (PF1 or CBP30) affect secretion to the extent of Compound 8 |
| COc1ccccc1S(=O)(=O)Nc1ccc2c(c1)CN(C)C(=O)N2 [PF-1, reference compound] |  | glucose-dependent (glucose-stimulated) insulin secretion, luciferase reporter [1]: None of the compounds assayed increased glucose-dependent insulin secretion; effect on glucose-stimulated insulin secretion at high concentrations [1]: inhibitory effects |
| COc1ccc(CCc2nc3cc(-c4c(C)noc4C)ccc3n2C[C@H](C)N2CCOCC2)cc1Cl [SGC-CBP30, reference compound] |  | glucose-dependent (glucose-stimulated) insulin secretion, luciferase reporter [1]: None of the compounds assayed increased glucose-dependent insulin secretion; effect on glucose-stimulated insulin secretion at high concentrations [1]: inhibitory effects |
| CC1CC(OC(=O)C(O)c2ccccc2)CC(C)(C)N1C (stereo not drawn) [eucatropine, reference compound] |  | PS [4]: 1.1 % remaining; PS [5]: 24.6 % remaining; PS [6]: 32.4 % remaining |
